Values of other authors in patent US20080124386A1, “APOPTOSIS-MIMICKING SYNTHETIC ENTITIES AND USE THEREOF IN MEDICAL TREATMENT” (Vasogen Ireland Limited, priority 2000, published 2008).

Key:
spatial memory = settings: oral, 50 mg/day; compared with placebo
Alzheimer's disease = settings: oral, 300 mg/day; compared with placebo

For phosphatidylserine [PS], the “spatial memory in animal models” value (spatial memory) is listed as “statistically significant improvements” and the “treatment of Alzheimer's disease in humans” value (Alzheimer's disease) is listed as “statistically significant improvements”.
